From ChEMBL document CHEMBL4619717, “Novel quinolin-4(1H)-one derivatives as multi-effective aldose reductase inhibitors for treatment of diabetic complications: Synthesis, biological evaluation, and molecular modeling studies” (Bioorg Med Chem Lett, 2020)

How the values were obtained:
[1] = Antioxidant activity assessed as DPPH radical scavenging activity at 100 uM relative to control; type: functional
[2] = target: Aldo-keto reductase family 1 member B1 (Rattus norvegicus, UniProt P07943); assay: Inhibition of AKR1B1 in rat lenses
[3] = target: T1, AKR1A1 (aldo-keto reductase family 1 member A1) (Rattus norvegicus, UniProt P51635); assay: Inhibition of AKR1A1 in rat kidney at 10 uM relative to control
T1 sequence (P51635 whole entry): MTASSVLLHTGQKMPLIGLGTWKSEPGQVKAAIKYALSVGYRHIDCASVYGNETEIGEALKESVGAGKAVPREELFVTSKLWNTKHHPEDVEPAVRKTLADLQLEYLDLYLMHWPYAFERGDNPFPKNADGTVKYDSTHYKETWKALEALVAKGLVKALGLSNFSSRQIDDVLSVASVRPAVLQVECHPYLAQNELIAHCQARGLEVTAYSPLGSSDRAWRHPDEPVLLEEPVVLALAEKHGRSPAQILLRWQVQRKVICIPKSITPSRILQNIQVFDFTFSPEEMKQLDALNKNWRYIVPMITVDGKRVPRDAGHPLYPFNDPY

[4] = Antioxidant activity assessed as DPPH radical scavenging activity at 50 uM relative to control; type: functional
[5] = Antioxidant activity assessed as DPPH radical scavenging activity at 10 uM relative to control; type: functional
[6] = n-octanol/aqueous buffer distribution coefficient, logD of compound at pH 7.4 by shake flask assay based HPLC-MS analysis; type: physicochemical

| Compound | IC50 [2] [nM] | inhibition at 10 µM [3] [%] | logD [6] | Activity [1] [%] | Activity [4] [%] | Activity [5] [%] |
| --- | --- | --- | --- | --- | --- | --- |
| COc1ccc(Cn2cc(C(=O)O)c(=O)c3ccccc32)cc1 | 12000 | – | – | 30.5 | – | – |
| COc1ccc(Cn2cc(C(=O)O)c(=O)c3ccccc32)cc1OC | 10600 | 24.8 | – | 32.2 | – | – |
| CC(/C=C1\SC(=S)N(CC(=O)O)C1=O)=C\c1ccccc1 | – | 43.1 | – | – | – | – |
| CONC(=O)c1cn(Cc2ccccc2)c2ccccc2c1=O | 12800 | 5.1 | 1.19 | 25.2 | – | – |
| CS(=O)(=O)NC(=O)c1cn(Cc2ccccc2)c2ccccc2c1=O | 15000 | 7.9 | 0.53 | 28.7 | – | – |
| COc1cc(Cn2cc(C(=O)O)c(=O)c3ccccc32)cc(OC)c1 | 9870 | 30.1 | – | 47.6 | – | – |
| O=C(O)c1cn(Cc2ccccc2)c2ccccc2c1=O | 11000 | 5.8 | 0.82 | 20.3 | – | – |
| COc1ccc(Cn2cc(C(=O)NO)c(=O)c3ccccc32)cc1OC | 13600 | 10.5 | – | 39.1 | – | – |
| COc1cc(Cn2cc(C(=O)NO)c(=O)c3ccccc32)cc(OC)c1 | 15600 | 17.2 | – | 41.3 | – | – |
| Cc1c(C)c2c(c(C)c1O)CCC(C)(C(=O)O)O2 (stereo not drawn) | – | – | – | 94.2 | 84.1 | 77.2 |
| COc1ccc(Cn2cc(C(=O)NO)c(=O)c3ccccc32)cc1 | 12500 | 7.6 | – | 34.1 | – | – |
| O=C(NO)c1cn(Cc2ccc(Br)cc2)c2ccccc2c1=O | 2490 | 17.6 | – | 27.6 | – | – |
| O=C(NO)c1cn(Cc2ccccc2)c2ccccc2c1=O | 12600 | 7.1 | 1.53 | 27.1 | – | – |

Further lines, with some results ahead:

| IC50 [2] [nM] | inhibition at 10 µM [3] [%] | logD [6] | Compound | Activity [1] [%] | Activity [4] [%] | Activity [5] [%] |
| --- | --- | --- | --- | --- | --- | --- |
| 251 | 38.6 | – | O=C(O)c1cn(Cc2ccc(O)c(O)c2)c2ccccc2c1=O | 87.1 | 61.9 | 44.9 |
| 1530 | 20.1 | – | O=C(O)c1cn(Cc2ccc(Br)cc2)c2ccccc2c1=O | 25.4 | – | – |
| 107 | 34.6 | – | O=C(NO)c1cn(Cc2ccc(O)cc2)c2ccccc2c1=O | 74.9 | 51.1 | 32.3 |
| 112 | 24.7 | – | CS(=O)(=O)NC(=O)c1cn(Cc2cc(O)cc(O)c2)c2ccccc2c1=O | 79.4 | 64.7 | 33.6 |
| 98 | 37.5 | – | O=C(O)c1cn(Cc2ccc(O)cc2)c2ccccc2c1=O | 62.7 | 30.4 | 14.6 |
| 65 | 27.4 | 1.32 | O=C(NO)c1cn(Cc2cc(O)cc(O)c2)c2ccccc2c1=O | 91 | 72.4 | 57.8 |
| 689 | 21.7 | 0.73 | CONC(=O)c1cn(Cc2cc(O)cc(O)c2)c2ccccc2c1=O | 88.7 | 55.8 | 42.7 |
| 287 | 25.4 | – | O=C(NO)c1cn(Cc2ccc(O)c(O)c2)c2ccccc2c1=O | 88.1 | 65.1 | 51.1 |
| 321 | 18.3 | – | O=C(O)c1cn(Cc2ccc(Cl)cc2)c2ccccc2c1=O | 28.7 | – | – |
| 154 | 30.2 | – | O=C(O)c1cn(Cc2ccc(F)cc2)c2ccccc2c1=O | 21.4 | – | – |
| 237 | 24.1 | – | O=C(NO)c1cn(Cc2ccc(F)cc2)c2ccccc2c1=O | 32.1 | – | – |
| 57 | 36.6 | 0.57 | O=C(O)c1cn(Cc2cc(O)cc(O)c2)c2ccccc2c1=O | 92.4 | 71.1 | 51.7 |
| 626 | 26.5 | – | O=C(NO)c1cn(Cc2ccc(Cl)cc2)c2ccccc2c1=O | 31.7 | – | – |
